Data as given in ChEMBL document CHEMBL4828715, “Discovery, Structure-Activity Relationships, and In Vivo Evaluation of Novel Aryl Amides as Brain Penetrant Adaptor Protein 2-Associated Kinase 1 (AAK1) Inhibitors for the Treatment of Neuropathic Pain” (J Med Chem, 2021).
In brackets after ≈: the same amount, converted by molar mass. Activity calls are given as the source filed them. No cut-off for these calls is given here.

How the values were obtained:
[1] = Drug concentration in Sprague-Dawley rat plasma at 10 mg/kg, sc measured after 190 mins; format: ADME, organism-based
[2] = Unbound drug concentration in brain of Sprague-Dawley rat model of chronic constriction injury-induced neuropathic pain at 1 mg/kg, sc; format: ADME, organism-based; conditions: in vivo
[3] = molecular target: Protein kinase C theta type (Homo sapiens, UniProt Q04759); test: Inhibition of PKCtheta (unknown origin)
Protein kinase C theta type, sequence (Q04759 whole entry, the tested form may be a part): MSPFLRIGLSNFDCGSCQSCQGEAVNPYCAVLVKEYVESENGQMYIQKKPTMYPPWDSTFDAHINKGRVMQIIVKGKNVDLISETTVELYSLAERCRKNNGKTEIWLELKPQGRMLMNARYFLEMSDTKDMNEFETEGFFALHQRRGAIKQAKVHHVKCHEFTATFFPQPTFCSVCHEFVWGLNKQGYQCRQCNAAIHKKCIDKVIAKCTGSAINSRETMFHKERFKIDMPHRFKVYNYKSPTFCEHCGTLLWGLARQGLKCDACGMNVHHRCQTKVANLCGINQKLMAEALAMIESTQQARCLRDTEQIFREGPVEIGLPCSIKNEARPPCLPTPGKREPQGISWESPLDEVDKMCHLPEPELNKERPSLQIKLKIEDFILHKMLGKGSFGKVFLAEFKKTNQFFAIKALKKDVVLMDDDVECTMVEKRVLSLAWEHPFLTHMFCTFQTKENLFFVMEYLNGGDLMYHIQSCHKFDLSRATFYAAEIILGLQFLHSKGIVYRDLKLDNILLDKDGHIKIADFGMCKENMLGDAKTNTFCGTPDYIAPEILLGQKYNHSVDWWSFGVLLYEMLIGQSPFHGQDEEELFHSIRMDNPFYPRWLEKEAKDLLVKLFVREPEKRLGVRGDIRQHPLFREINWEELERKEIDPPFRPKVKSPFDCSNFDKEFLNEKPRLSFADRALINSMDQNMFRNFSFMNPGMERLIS

[4] = molecular target: SRSF protein kinase 1 (Homo sapiens) (UniProt Q96SB4); test: Inhibition of wild-type human full length SRPK1 (M1 to S655 residues) expressed in bacterial expression system assessed as residual binding level at 1 uM by Kinomescan method relative to control
[5] = Drug concentration in brain of Sprague-Dawley rat model of chronic constriction injury-induced neuropathic pain at 10 mg/kg, sc; format: ADME, organism-based; conditions: in vivo, read-out: Ct
[6] = Drug concentration in plasma of C57BL6 mouse at 60 mg/kg, sc; format: ADME, organism-based; conditions: in vivo
[7] = molecular target: SRSF protein kinase 3 (Homo sapiens) (UniProt Q9UPE1); test: Inhibition of wild-type human partial length SRPK3 (P41 to P567 residues) expressed in bacterial expression system assessed as residual binding level at 1 uM by Kinomescan method relative to control
SRSF protein kinase 3 (Homo sapiens), sequence (Q9UPE1 whole entry, the tested form may be a part): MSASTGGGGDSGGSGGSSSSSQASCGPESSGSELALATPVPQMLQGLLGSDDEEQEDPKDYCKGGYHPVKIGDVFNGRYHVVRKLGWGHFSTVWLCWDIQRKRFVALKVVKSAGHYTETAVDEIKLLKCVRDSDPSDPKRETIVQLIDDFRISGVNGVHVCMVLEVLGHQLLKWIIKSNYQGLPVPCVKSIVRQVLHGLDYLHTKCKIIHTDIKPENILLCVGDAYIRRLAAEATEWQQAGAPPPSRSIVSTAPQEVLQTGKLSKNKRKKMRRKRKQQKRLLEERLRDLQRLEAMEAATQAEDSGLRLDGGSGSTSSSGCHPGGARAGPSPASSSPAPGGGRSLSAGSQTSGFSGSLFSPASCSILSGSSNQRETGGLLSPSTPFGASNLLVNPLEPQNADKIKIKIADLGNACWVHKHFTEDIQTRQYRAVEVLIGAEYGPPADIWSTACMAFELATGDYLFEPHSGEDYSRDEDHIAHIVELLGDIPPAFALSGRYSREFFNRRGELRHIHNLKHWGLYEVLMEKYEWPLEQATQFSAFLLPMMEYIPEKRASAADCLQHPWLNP

[8] = Unbound brain-to-plasma concentration ratio in C57BL6 mouse at 30 mg/kg, sc; format: ADME, organism-based; conditions: read-out: K(p,uu,brain)
[9] = Unbound drug concentration in plasma of Sprague-Dawley rat model of chronic constriction injury-induced neuropathic pain at 30 mg/kg, sc; format: ADME, organism-based; conditions: in vivo
[10] = Induction of motor coordination impairment in Sprague-Dawley rat at 60 mg/kg, sc measured up to 180 mins by rotarod test; format: organism-based; conditions: in vivo, 3 h
[11] = Aqueous solubility of the compound at pH 7.4; format: physicochemical
[12] = molecular target: AP2-associated protein kinase 1 (Mus musculus) (UniProt Q3UHJ0); test: In vivo inhibition of AAK1 in C57BL6 mouse assessed as suppression of mu2 phosphorylation in brain lysate at 3 mg/kg, sc measured after 30 mins by Western blot analysis relative to control; format: functional, organism-based
AP2-associated protein kinase 1 (Mus musculus), sequence (Q3UHJ0 whole entry, looked up): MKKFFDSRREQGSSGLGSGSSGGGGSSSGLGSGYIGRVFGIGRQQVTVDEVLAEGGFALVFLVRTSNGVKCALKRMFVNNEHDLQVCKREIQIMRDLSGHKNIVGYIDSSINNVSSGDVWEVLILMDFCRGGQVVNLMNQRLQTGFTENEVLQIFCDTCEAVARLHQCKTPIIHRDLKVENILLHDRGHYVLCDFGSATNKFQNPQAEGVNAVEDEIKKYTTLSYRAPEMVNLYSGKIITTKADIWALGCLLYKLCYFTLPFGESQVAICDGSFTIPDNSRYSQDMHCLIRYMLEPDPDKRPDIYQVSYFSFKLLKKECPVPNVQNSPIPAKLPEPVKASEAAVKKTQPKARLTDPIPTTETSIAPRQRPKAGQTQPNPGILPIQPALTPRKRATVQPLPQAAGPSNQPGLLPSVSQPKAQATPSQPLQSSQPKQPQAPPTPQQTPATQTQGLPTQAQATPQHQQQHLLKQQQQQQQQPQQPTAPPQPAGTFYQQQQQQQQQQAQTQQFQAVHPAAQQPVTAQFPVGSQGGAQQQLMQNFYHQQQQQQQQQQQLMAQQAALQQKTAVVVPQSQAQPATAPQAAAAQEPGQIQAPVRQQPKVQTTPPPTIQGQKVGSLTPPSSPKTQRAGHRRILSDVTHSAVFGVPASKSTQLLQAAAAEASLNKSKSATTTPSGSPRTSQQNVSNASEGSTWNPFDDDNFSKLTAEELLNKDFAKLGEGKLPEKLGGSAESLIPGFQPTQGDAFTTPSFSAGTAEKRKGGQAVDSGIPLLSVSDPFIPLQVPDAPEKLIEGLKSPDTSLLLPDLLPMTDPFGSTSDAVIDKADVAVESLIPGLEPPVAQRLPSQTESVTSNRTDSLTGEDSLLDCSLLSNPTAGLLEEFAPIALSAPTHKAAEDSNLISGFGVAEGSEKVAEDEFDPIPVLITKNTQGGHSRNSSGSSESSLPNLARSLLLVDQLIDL

[13] = molecular target: Alpha-2C adrenergic receptor (Homo sapiens, UniProt P18825); test: Inhibition of alpha 2C adrenergic receptor (unknown origin)
[14] = molecular target: T1, Citron Rho-interacting kinase (Homo sapiens, UniProt O14578); test: Inhibition of CRIK (unknown origin) assessed as residual binding level at 1 uM by Kinomescan method relative to control
T1 sequence (O14578 whole entry): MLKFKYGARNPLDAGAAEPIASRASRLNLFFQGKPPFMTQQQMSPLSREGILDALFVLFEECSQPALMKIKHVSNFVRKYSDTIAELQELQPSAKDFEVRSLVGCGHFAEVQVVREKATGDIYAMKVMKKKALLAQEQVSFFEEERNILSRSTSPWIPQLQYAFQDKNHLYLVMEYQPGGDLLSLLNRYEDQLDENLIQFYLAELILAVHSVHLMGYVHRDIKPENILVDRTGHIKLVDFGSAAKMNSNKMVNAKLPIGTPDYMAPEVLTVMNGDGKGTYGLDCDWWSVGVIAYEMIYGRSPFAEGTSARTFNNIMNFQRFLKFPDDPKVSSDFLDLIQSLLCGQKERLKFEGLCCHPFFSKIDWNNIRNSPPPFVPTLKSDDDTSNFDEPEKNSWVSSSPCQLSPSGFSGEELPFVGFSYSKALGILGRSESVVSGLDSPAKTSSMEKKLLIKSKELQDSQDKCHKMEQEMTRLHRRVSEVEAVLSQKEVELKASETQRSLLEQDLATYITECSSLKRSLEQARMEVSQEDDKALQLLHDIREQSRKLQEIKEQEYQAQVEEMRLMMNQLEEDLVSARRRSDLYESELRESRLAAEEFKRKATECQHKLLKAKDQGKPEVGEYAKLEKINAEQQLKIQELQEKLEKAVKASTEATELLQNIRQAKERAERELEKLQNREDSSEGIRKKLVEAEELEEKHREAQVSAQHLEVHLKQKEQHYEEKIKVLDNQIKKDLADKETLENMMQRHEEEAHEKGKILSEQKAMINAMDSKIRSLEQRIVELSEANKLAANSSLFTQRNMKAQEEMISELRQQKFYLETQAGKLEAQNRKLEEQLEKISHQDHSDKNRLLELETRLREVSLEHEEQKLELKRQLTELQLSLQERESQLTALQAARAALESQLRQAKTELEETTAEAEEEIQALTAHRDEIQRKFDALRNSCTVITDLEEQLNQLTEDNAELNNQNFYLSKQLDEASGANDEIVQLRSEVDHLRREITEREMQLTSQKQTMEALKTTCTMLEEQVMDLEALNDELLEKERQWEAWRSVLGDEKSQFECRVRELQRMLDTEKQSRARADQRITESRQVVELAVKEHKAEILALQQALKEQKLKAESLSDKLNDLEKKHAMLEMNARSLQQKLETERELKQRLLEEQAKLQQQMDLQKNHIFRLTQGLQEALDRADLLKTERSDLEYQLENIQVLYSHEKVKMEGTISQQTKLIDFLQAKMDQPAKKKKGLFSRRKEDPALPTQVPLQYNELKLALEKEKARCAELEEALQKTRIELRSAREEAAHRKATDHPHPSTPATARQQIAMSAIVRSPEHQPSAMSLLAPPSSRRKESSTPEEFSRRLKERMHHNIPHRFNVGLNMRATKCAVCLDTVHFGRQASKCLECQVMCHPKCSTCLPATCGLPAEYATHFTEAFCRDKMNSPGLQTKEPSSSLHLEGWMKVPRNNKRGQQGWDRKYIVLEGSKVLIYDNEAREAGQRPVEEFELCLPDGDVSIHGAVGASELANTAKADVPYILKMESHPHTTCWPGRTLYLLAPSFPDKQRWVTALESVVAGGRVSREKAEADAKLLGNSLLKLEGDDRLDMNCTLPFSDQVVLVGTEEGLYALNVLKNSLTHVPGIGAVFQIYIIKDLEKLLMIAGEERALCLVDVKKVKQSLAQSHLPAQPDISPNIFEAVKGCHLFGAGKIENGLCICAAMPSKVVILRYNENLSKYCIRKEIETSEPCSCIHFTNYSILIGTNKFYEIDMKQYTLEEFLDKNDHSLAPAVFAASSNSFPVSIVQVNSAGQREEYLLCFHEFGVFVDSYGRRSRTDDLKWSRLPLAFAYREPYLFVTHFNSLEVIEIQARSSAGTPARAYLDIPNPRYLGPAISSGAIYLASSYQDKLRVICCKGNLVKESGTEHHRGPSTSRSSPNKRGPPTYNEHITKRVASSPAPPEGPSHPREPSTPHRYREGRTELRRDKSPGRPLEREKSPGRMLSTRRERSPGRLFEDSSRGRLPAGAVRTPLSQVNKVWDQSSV

[15] = Permeability of the compound across apical to basolateral membrane in human Caco-2 cells incubated for 2 hrs by LC-MS/MS analysis
[16] = Drug concentration in plasma of C57BL6 mouse at 30 mg/kg, sc; format: ADME, organism-based; conditions: in vivo
[17] = Metabolic stability in human liver microsomes assessed as parent compound remaining at 0.5 uM incubated for 10 mins in presence of NADPH by LC-MS/MS analysis; format: ADME, Microsome; conditions: read-out: Stability
Mus musculus [18] = test: Antinociceptive activity against formalin-induced nociceptive behavior in C57BL6 mouse assessed as reduction in time spent phase 1 hind paw licking/biting at 30 mg/kg, sc administered 60 mins prior to formalin challenge by formalin test; format: functional; conditions: 1 h
[19] = Permeability of the compound at pH 7.4 incubated for 4 hrs by PAMPA-based UV spectrophotometry; format: ADME; conditions: PAMPA, pH 7.4, read-out: permeability
[20] = Drug concentration in plasma of C57BL6 mouse at 3 mg/kg, sc; format: ADME, organism-based; conditions: in vivo
[21] = molecular target: AP2-associated protein kinase 1 (Mus musculus) (UniProt Q3UHJ0); test: In vivo inhibition of AAK1 in C57BL6 mouse assessed as suppression of mu2 phosphorylation in brain lysate at 30 mg/kg, sc measured; format: functional, organism-based
[22] = Drug concentration in C57BL6 mouse at 10 ml/kg, sc measured after 2 hrs by LC-MS/MS analysis; format: ADME, organism-based; conditions: plasma
[23] = Metabolic stability in mouse liver microsomes assessed as parent compound remaining at 0.5 uM incubated for 10 mins in presence of NADPH by LC-MS/MS analysis; format: ADME, Microsome; conditions: read-out: Stability
[24] = Drug concentration in plasma of C57BL6 mouse at 10 mg/kg, sc; format: ADME, organism-based; conditions: in vivo
[25] = molecular target: T1, Citron Rho-interacting kinase; test: Inhibition of CRIK (unknown origin) by Kinomescan method
[26] = Drug concentration in plasma of Sprague-Dawley rat model of chronic constriction injury-induced neuropathic pain at 10 mg/kg, sc; format: ADME, organism-based; conditions: in vivo
Mus musculus [27] = test: Antinociceptive activity against formalin-induced nociceptive behavior in C57BL6 mouse assessed as reduction in phase 2 hind paw licking/biting at 30 mg/kg, sc administered 60 mins prior to formalin challenge by formalin test; format: functional, organism-based
[28] = Unbound drug concentration in brain of Sprague-Dawley rat model of chronic constriction injury-induced neuropathic pain at 30 mg/kg, sc; format: ADME, organism-based; conditions: in vivo
Mus musculus [29] = test: Antinociceptive activity against formalin-induced nociceptive behavior in C57BL6 mouse assessed as reduction in phase 2 hind paw licking/biting at 10 mg/kg, sc administered 60 mins prior to formalin challenge by formalin test; format: functional, organism-based
[30] = Drug concentration in plasma of Sprague-Dawley rat model of chronic constriction injury-induced neuropathic pain at 1 mg/kg, sc; format: ADME, organism-based; conditions: in vivo
[31] = Protein binding in human plasma assessed as unbound fraction at 10 uM measured after 5 hrs by equilibrium dialysis method
[32] = Ratio of drug concentration in brain to plasma of Sprague-Dawley rat model of chronic constriction injury-induced neuropathic pain at 60 mg/kg, sc measured after 240 mins; format: ADME, organism-based; conditions: read-out: BPR
[33] = Unbound drug concentration in brain of Sprague-Dawley rat model of chronic constriction injury-induced neuropathic pain at 10 mg/kg, sc; format: ADME, organism-based; conditions: in vivo
[34] = molecular target: Sodium-dependent serotonin transporter (Homo sapiens, UniProt P31645); test: Inhibition of SERT (unknown origin)
[35] = Drug concentration in plasma of C57BL6 mouse at 1 mg/kg, sc; format: ADME, organism-based; conditions: in vivo
[36] = molecular target: AP2-associated protein kinase 1 (Mus musculus) (UniProt Q3UHJ0); test: In vivo inhibition of AAK1 in C57BL6 mouse assessed as suppression of mu2 phosphorylation in brain lysate at 30 mg/kg, sc measured after 30 mins by Western blot analysis relative to control; format: functional, organism-based
[37] = molecular target: AP2-associated protein kinase 1 (Mus musculus) (UniProt Q3UHJ0); test: In vivo inhibition of AAK1 in C57BL6 mouse assessed as suppression of mu2 phosphorylation in brain lysate at 60 mg/kg, sc measured after 1 hr by Western blot analysis relative to control; format: functional, organism-based
[38] = molecular target: AP2-associated protein kinase 1 (Homo sapiens, UniProt Q2M2I8); test: Inhibition of human AAK1 expressed in HEK293 cells assessed as suppression of AP2 phosphorylation measured after 3 hrs by Western blot analysis; format: cell-based
[39] = molecular target: G protein-coupled receptor kinase 4 (Homo sapiens) (UniProt P32298); test: Inhibition of wild-type human full length GRK4 (M1 to C578 residues) expressed in bacterial expression system assessed as residual binding level at 1 uM by Kinomescan method relative to control
G protein-coupled receptor kinase 4 (Homo sapiens), sequence (P32298 whole entry, looked up, the tested form may be a part): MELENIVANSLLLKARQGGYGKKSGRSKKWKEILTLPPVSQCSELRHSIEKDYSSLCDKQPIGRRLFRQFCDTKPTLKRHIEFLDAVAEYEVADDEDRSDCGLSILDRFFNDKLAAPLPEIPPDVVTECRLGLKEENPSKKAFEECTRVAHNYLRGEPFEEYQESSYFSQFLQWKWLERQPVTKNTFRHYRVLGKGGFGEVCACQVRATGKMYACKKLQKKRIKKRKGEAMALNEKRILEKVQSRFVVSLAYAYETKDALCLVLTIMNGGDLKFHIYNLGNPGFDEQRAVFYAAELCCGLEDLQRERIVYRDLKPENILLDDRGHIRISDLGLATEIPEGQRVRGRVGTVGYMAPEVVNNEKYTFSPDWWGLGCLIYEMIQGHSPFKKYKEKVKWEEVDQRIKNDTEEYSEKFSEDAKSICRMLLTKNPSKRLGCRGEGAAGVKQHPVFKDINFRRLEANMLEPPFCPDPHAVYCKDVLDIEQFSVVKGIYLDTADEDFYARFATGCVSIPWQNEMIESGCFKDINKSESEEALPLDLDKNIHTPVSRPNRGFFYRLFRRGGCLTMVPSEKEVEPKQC

[40] = Unbound drug concentration in plasma of Sprague-Dawley rat model of chronic constriction injury-induced neuropathic pain at 3 mg/kg, sc; format: ADME, organism-based; conditions: in vivo
[41] = Unbound drug concentration in brain of Sprague-Dawley rat model of chronic constriction injury-induced neuropathic pain at 3 mg/kg, sc; format: ADME, organism-based; conditions: in vivo

SMILES: CC(C)C[C@@H](N)C(=O)Nc1ccc(-c2cnco2)c(OC(F)F)c1
- concentration at 3.167 h [1]: 7.4 µM
- Drug uptake(free) [2]: 0.01 µM
- IC50 [3]: 1330 nM
- Activity [4]: 12%
- concentration [5]: 7 µM
- concentration [6]: 77 µM
- Activity [7]: 7.6%
- Kp uu [8]: 0.71
- Cp(f) [9]: 1.04 µM
- Activity [10]: Non-Toxic
- solubility [11]: 600 µg/mL (≈ 1770 µM)
- inhibition [12]: 13%
- IC50 [13]: > 30000 nM
- Activity [14]: 0.7%
- Papp A→B at 2 h [15]: 12.9 ×10⁻⁶ cm/s
- concentration [16]: 37 µM
- remaining at 10 min, 0.5 µM [17]: 84%
- Time (Mus musculus [18]): 18 s
- Papp at 4 h [19]: 96.7 ×10⁻⁶ cm/s
- concentration [20]: 2.6 µM
- inhibition [21]: Active
- concentration at 2 h [22]: 17.7 µM
- remaining at 10 min, 0.5 µM [23]: 46%
- concentration [24]: 9.1 µM
- IC50 [25]: 120 nM
- concentration [26]: 11 µM
- Activity (Mus musculus [27]): Active
- Drug uptake(free) [28]: 0.92 µM
- Activity (Mus musculus [29]): Active
- concentration [30]: 0.4 µM
- fraction unbound at 5 h, 10 µM [31]: 0.038
- Kp at 4 h [32]: 0.5
- Drug uptake(free) [33]: 0.2 µM
- IC50 [34]: > 30000 nM
- concentration [35]: 1.2 µM
- inhibition [36]: 62%
- inhibition [37]: 90%
- IC50 [38]: 51 nM
- Activity [39]: 13%
- Cp(f) [40]: 0.02 µM
- Drug uptake(free) [41]: 0.03 µM
